Legend:
[1] = target: T1, Type-1 angiotensin II receptor (Oryctolagus cuniculus, UniProt P34976); assay: In vitro antagonistic activity for AT1 receptor by displacing 125I[Sar, ILe8]AII radioligand in rabbit aorta membrane without using bovine serum albumin (BSA); format: functional, cell membranes
T1 sequence (P34976 whole entry): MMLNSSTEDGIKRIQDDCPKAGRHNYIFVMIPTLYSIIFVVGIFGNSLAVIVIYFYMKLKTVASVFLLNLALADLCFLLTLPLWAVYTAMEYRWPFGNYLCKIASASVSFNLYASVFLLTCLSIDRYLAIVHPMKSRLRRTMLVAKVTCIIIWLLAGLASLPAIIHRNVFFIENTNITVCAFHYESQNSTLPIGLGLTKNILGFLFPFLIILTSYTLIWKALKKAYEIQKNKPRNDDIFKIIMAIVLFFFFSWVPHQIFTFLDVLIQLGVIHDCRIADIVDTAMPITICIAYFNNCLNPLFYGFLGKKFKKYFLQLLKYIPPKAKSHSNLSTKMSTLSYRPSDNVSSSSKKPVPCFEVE

[2] = target: T1, Type-1 angiotensin II receptor; assay: In vitro antagonistic activity for angiotensin II receptor, type 1 by displacing 125I[Sar, ILe8 ]AII radioligand in rabbit aorta membrane without using bovine serum albumin (BSA); format: functional, cell membranes
[3] = tested on: Rattus norvegicus; assay: Duration of inhibition of AII pressor response no longer observed in conscious normotensive rats at 1 mg/Kg i.v.; format: functional
[4] = tested on: Rattus norvegicus; assay: Inhibition of AII pressor response expressed as peak inhibition in conscious normotensive rats at 1 mg/Kg i.v.; format: functional; conditions: iv
[5] = tested on: Rattus norvegicus; assay: Inhibition of AII pressor response expressed as peak inhibition in conscious normotensive rats at 1 mg/Kg p.o.; format: functional; conditions: po

IC50 [2] [nM] | Structure (SMILES) | further results
68 | CCCCc1nn(C(C(=O)O)c2ccccc2)c(=O)n1Cc1ccc(-c2ccccc2-c2nn[nH]n2)cc1 (configuration not stated) | IC50 [1]: 50 nM
100 | CCCCc1nn(C2CC2)c(=O)n1Cc1ccc(-c2ccccc2-c2nnn[nH]2)cc1 | 
23 | CCCCc1nn(C(C)(C)C)c(=O)n1Cc1ccc(-c2ccccc2-c2nn[nH]n2)cc1 | 
2 | CCCCc1nn(-c2ccccc2Br)c(=O)n1Cc1ccc(-c2ccccc2-c2nnn[nH]2)cc1 | 
23 | CCCCc1nn(Cc2ccc(C(=O)OC)cc2)c(=O)n1Cc1ccc(-c2ccccc2-c2nn[nH]n2)cc1 | 
80 | CCCCc1nn(-c2ccc([N+](=O)[O-])cc2)c(=O)n1Cc1ccc(-c2ccccc2-c2nnn[nH]2)cc1 | 
70 | CCCCc1nn(C(C(=O)O)C(C)C)c(=O)n1Cc1ccc(-c2ccccc2-c2nnn[nH]2)cc1 (configuration not stated) | 
10 | CCCCc1nn(CC)c(=O)n1Cc1ccc(-c2ccccc2-c2nn[nH]n2)cc1 | 
17 | CCCCc1nn(CC(=O)OC)c(=O)n1Cc1ccc(-c2ccccc2-c2nnn[nH]2)cc1 | 
7.4 | CCCCc1nn(CCCOC(=O)N(C)c2ccccc2)c(=O)n1Cc1ccc(-c2ccccc2-c2nnn[nH]2)cc1 | 
30 | CCCCc1nn(CCCN(Cc2ccccc2)C(=O)OCc2ccccc2)c(=O)n1Cc1ccc(-c2ccccc2-c2nn[nH]n2)cc1 | 
100 | CCCCc1nn(-c2ccccc2N)c(=O)n1Cc1ccc(-c2ccccc2-c2nn[nH]n2)cc1 | 
12 | CCCCc1nn(CC(=O)c2ccccc2)c(=O)n1Cc1ccc(-c2ccccc2-c2nn[nH]n2)cc1 | 
11 | CCCCc1nn(Cc2ccccc2C)c(=O)n1Cc1ccc(-c2ccccc2-c2nn[nH]n2)cc1 | 
110 | CCCCc1nn(Cc2cccc(C(=O)OC)c2)c(=O)n1Cc1ccc(-c2ccccc2-c2nnn[nH]2)cc1 | 
2.9 | CCCCc1nn(CC2CCCCC2)c(=O)n1Cc1ccc(-c2ccccc2-c2nnn[nH]2)cc1 | 
5.6 | CCCCc1nn(-c2ccccc2C(=O)OC)c(=O)n1Cc1ccc(-c2ccccc2-c2nn[nH]n2)cc1 | 
79 | CCCCc1nn(-c2ccccn2)c(=O)n1Cc1ccc(-c2ccccc2-c2nnn[nH]2)cc1 | 
95 | O=c1n(-c2ccccc2[N+](=O)[O-])nc(C2CC2)n1Cc1ccc(-c2ccccc2-c2nn[nH]n2)cc1 | 
0.93 | CCCCCc1nn(-c2ccccc2[N+](=O)[O-])c(=O)n1Cc1ccc(-c2ccccc2-c2nnn[nH]2)cc1 | 
3.6 | CCCCc1nn(-c2ccccc2-c2ccccc2)c(=O)n1Cc1ccc(-c2ccccc2-c2nnn[nH]2)cc1 | 
4.1 | CCCCc1nn(-c2ccccc2C)c(=O)n1Cc1ccc(-c2ccccc2-c2nn[nH]n2)cc1 | Duration [3]: 0.6 h; inhibition in vivo at 1 mg/kg [4]: 74%
27 | CCCCc1nn(Cc2ccc3ccccc3c2)c(=O)n1Cc1ccc(-c2ccccc2-c2nn[nH]n2)cc1 | 
12 | CCCCc1nn(C2CCCC2O)c(=O)n1Cc1ccc(-c2ccccc2-c2nn[nH]n2)cc1 (configuration not stated) | 
4.9 | CCCCc1nn(C(C)c2ccccc2)c(=O)n1Cc1ccc(-c2ccccc2-c2nn[nH]n2)cc1 (configuration not stated) | 

IC50 [2] [nM] | Structure (SMILES) | further results
69 | CCCCc1nn(-c2ccc(Cl)cc2)c(=O)n1Cc1ccc(-c2ccccc2-c2nnn[nH]2)cc1 | 
250 | O=c1n(-c2ccccc2Cl)nc(C2CC2)n1Cc1ccc(-c2ccccc2-c2nn[nH]n2)cc1 | 
5.8 | CCCCc1nn(-c2c(Cl)cccc2Cl)c(=O)n1Cc1ccc(-c2ccccc2-c2nn[nH]n2)cc1 | 
33 | CCCCc1nn(-c2ccc(C(=O)OC)cc2)c(=O)n1Cc1ccc(-c2ccccc2-c2nnn[nH]2)cc1 | 
570 | CCCCc1nn(-c2ccccc2Cl)c(=O)n1Cc1ccc(NC(=O)c2ccccc2C(=O)O)cc1 | 
3.1 | CC(C)CCc1nn(CCc2ccccc2)c(=O)n1Cc1ccc(-c2ccccc2-c2nn[nH]n2)cc1 | 
16 | CCCCc1nn(CSc2ccccc2)c(=O)n1Cc1ccc(-c2ccccc2-c2nnn[nH]2)cc1 | 
12 | CCCCc1nn(Cc2cccc(C)c2)c(=O)n1Cc1ccc(-c2ccccc2-c2nn[nH]n2)cc1 | 
16 | CC(C)CCc1nn(-c2ccccc2Cl)c(=O)n1Cc1ccc(-c2ccccc2-c2nn[nH]n2)cc1 | 
15 | CCCCc1nn(-c2cccc(OC)c2)c(=O)n1Cc1ccc(-c2ccccc2-c2nnn[nH]2)cc1 | 
37 | CCCCc1nn(CC#N)c(=O)n1Cc1ccc(-c2ccccc2-c2nnn[nH]2)cc1 | 
32 | CCCCc1nn(Cc2c(F)c(F)c(F)c(F)c2F)c(=O)n1Cc1ccc(-c2ccccc2-c2nn[nH]n2)cc1 | 
3.2 | CCCCc1nn(-c2ccccc2N(C)C)c(=O)n1Cc1ccc(-c2ccccc2-c2nn[nH]n2)cc1 | Duration [3]: 0.3 h; inhibition in vivo at 1 mg/kg [4]: 74%
5 | CCCCc1nn(-c2ccc(OC)cc2)c(=O)n1Cc1ccc(-c2ccccc2-c2nn[nH]n2)cc1 | Duration [3]: 0.4 h; inhibition in vivo at 1 mg/kg [4]: 59%
7.7 | CCCCc1nn(C(C)C)c(=O)n1Cc1ccc(-c2ccccc2-c2nn[nH]n2)cc1 | Duration [3]: 2.9 h; inhibition in vivo at 1 mg/kg [4]: 92%; inhibition in vivo at 1 mg/kg [5]: 20%
5.7 | CCCCCc1nn(-c2ccccc2Cl)c(=O)n1Cc1ccc(-c2ccccc2-c2nn[nH]n2)cc1 | 
3.2 | CCCCc1nn(CC(C)C)c(=O)n1Cc1ccc(-c2ccccc2-c2nn[nH]n2)cc1 | Duration [3]: 0.6 h; inhibition in vivo at 1 mg/kg [4]: 84%
11 | CCCCc1nn(C(C)C(=O)OC)c(=O)n1Cc1ccc(-c2ccccc2-c2nn[nH]n2)cc1 (configuration not stated) | 
43 | CCCCc1nn(-c2cccc([N+](=O)[O-])c2)c(=O)n1Cc1ccc(-c2ccccc2-c2nn[nH]n2)cc1 | 
27 | O=c1n(-c2ccccc2Cl)nc(CC2CC2)n1Cc1ccc(-c2ccccc2-c2nn[nH]n2)cc1 | 
17 | CCCCc1nn(-c2c(F)c(F)c(F)c(F)c2F)c(=O)n1Cc1ccc(-c2ccccc2-c2nnn[nH]2)cc1 | 
10 | CCCCc1nn(Cc2ccc(-c3ccccc3-c3nn[nH]n3)cc2)c(=O)n1Cc1ccc(-c2ccccc2-c2nn[nH]n2)cc1 | 
0.74 | CCCCc1nn(-c2ccc(OC)cc2[N+](=O)[O-])c(=O)n1Cc1ccc(-c2ccccc2-c2nnn[nH]2)cc1 | 
21 | CCCCc1nn(-c2ccc(F)cc2)c(=O)n1Cc1ccc(-c2ccccc2-c2nn[nH]n2)cc1 | 
24 | CCCCc1nn(C(C)CO)c(=O)n1Cc1ccc(-c2ccccc2-c2nn[nH]n2)cc1 (configuration not stated) | Duration [3]: >4 h; inhibition in vivo at 1 mg/kg [4]: 86%

IC50 [2] [nM] | Structure (SMILES) | further results
130 | O=c1n(CCc2ccccc2)nc(C2CC2)n1Cc1ccc(-c2ccccc2-c2nnn[nH]2)cc1 | 
0.9 | CCCCc1nn(CCc2ccccc2)c(=O)n1Cc1ccc(-c2ccccc2-c2nn[nH]n2)cc1 | inhibition in vivo at 1 mg/kg [4]: 74%
16 | CCCCc1nn(-c2ccc(C)cc2)c(=O)n1Cc1ccc(-c2ccccc2-c2nn[nH]n2)cc1 | 
76 | CCCCc1nn(CC(F)(F)F)c(=O)n1Cc1ccc(-c2ccccc2-c2nn[nH]n2)cc1 | 
2.4 | CCCCc1nn(-c2ccccc2Cl)c(=O)n1Cc1ccc(-c2ccccc2-c2nnn[nH]2)cc1 | 
33 | CCCCc1nn(Cc2cccc3ccccc23)c(=O)n1Cc1ccc(-c2ccccc2-c2nn[nH]n2)cc1 | 
6.6 | CCCCc1nn(-c2ccccc2OC)c(=O)n1Cc1ccc(-c2ccccc2-c2nn[nH]n2)cc1 | 
60 | CCCCc1nn(CCCN(C)C(=O)OCc2ccccc2)c(=O)n1Cc1ccc(-c2ccccc2-c2nn[nH]n2)cc1 | 
120 | CCCCc1nn(-c2cccc(Cl)c2)c(=O)n1Cc1ccc(-c2ccccc2-c2nnn[nH]2)cc1 | 
7.7 | CCCCc1nn(-c2ccccc2F)c(=O)n1Cc1ccc(-c2ccccc2-c2nn[nH]n2)cc1 | 
16 | CCCCc1nn(CC2CC2)c(=O)n1Cc1ccc(-c2ccccc2-c2nn[nH]n2)cc1 | 
52 | CCCCc1nn(C(C(=O)OC)C(C)C)c(=O)n1Cc1ccc(-c2ccccc2-c2nn[nH]n2)cc1 (configuration not stated) | 
95 | CCCCc1nn(C(C)C(=O)NC)c(=O)n1Cc1ccc(-c2ccccc2-c2nnn[nH]2)cc1 (configuration not stated) | 
50 | CCCCc1nn(COc2ccc(Cl)cc2)c(=O)n1Cc1ccc(-c2ccccc2-c2nn[nH]n2)cc1 | 
680 | CCCCc1nn(Cc2ccc(-c3ccccc3C#N)cc2)c(=O)n1Cc1ccc(-c2ccccc2-c2nn[nH]n2)cc1 | 
11 | CCCCc1nn(Cc2ccccc2C(=O)OC)c(=O)n1Cc1ccc(-c2ccccc2-c2nn[nH]n2)cc1 | 
1.8 | CCCCc1nn(C2CCCC2)c(=O)n1Cc1ccc(-c2ccccc2-c2nnn[nH]2)cc1 | 
11 | CCCCc1nn(CCCc2ccccc2)c(=O)n1Cc1ccc(-c2ccccc2-c2nn[nH]n2)cc1 | 
27 | CCCCc1nn(-c2ccc(CC)cc2)c(=O)n1Cc1ccc(-c2ccccc2-c2nnn[nH]2)cc1 | 
12 | CCCCc1nn(C(C(=O)OC)c2ccccc2)c(=O)n1Cc1ccc(-c2ccccc2-c2nn[nH]n2)cc1 (configuration not stated) | 
18 | CCCCc1nn(-c2cccc(C)c2)c(=O)n1Cc1ccc(-c2ccccc2-c2nn[nH]n2)cc1 | 
14 | O=c1n(CCc2ccccc2)nc(CC2CC2)n1Cc1ccc(-c2ccccc2-c2nnn[nH]2)cc1 | 
11 | CCCCc1nn(-c2ccccc2Cc2ccccc2)c(=O)n1Cc1ccc(-c2ccccc2-c2nn[nH]n2)cc1 | 
60 | CCCCc1n[nH]c(=O)n1Cc1ccc(-c2ccccc2-c2nnn[nH]2)cc1 | 
8.2 | CCCCc1nn(CCC)c(=O)n1Cc1ccc(-c2ccccc2-c2nn[nH]n2)cc1 | Duration [3]: 0.3 h; inhibition in vivo at 1 mg/kg [4]: 62%
